Each structure is given as a SMILES string.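 Where inhibition never reached the appropriate level, the endpoint shown equals the highest concentration tested. Otherwise, values were interpolated linearly from a five-concentration, 48-hour dose response in 96-well plates. The concentration for 50% growth inhibition is given as GI50. TGI denotes the concentration required for complete inhibition of growth.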

Among the test systems are SK-OV-3 ovarian; MOLT-4 leukemia; NCI-H522 lung; HCT-15 colon; HCC-2998 colon; SF-268 CNS; IGROV1 ovarian; NCI-H460 lung; A549 NSCLC; HS 578T breast.
What all share (assay): inhibition of tumour cell growth, NCI panel, 48 h

Turning to `O=C(Cn1ccnc1[N+](=O)[O-])N(CCO)CCO`, the GI50 with SK-OV-3 ovarian was more than 58 µM; with MOLT-4 leukemia, more than 1250 µM; in the assay with NCI-H522 lung, more than 1250 µM; in the assay on HCT-15 colon it was more than 1250 µM; in the assay with SF-268 CNS, more than 1250 µM; with IGROV1 ovarian, more than 1250 µM. The figures for the GI50 with NCI-H460 lung and in the assay on A549 NSCLC were more than 250 µM and more than 1250 µM, respectively. Further, the TGI in the assay on SK-OV-3 ovarian is more than 250 µM; in the assay with MOLT-4 leukemia it was more than 1250 µM; in the assay with NCI-H522 lung it was more than 1250 µM; in the assay on HCT-15 colon, more than 1250 µM; in the assay with HCC-2998 colon it was more than 250 µM; in the assay with SF-268 CNS it was more than 1250 µM. Besides, the TGI in the assay with IGROV1 ovarian was more than 1250 µM; in the assay with NCI-H460 lung, more than 1250 µM; in the assay with A549 NSCLC, more than 1250 µM; with HS 578T breast it was more than 250 µM.

As to `Cc1ccc(NS(=O)(=O)c2ccc(-c3cnc(C4CC4)o3)cc2)cc1`, the GI50 with SK-OV-3 ovarian is 4.81 µM; in the assay on MOLT-4 leukemia, 3.22 µM; in the assay on NCI-H522 lung it was 2.43 µM; in the assay with HCT-15 colon, 1.48 µM; in the assay with HCC-2998 colon it was 10.8 µM; in the assay with SF-268 CNS, 6.19 µM. The GI50 was 3.78 µM with IGROV1 ovarian, 3.91 µM in the assay with NCI-H460 lung, 4.55 µM in the assay on A549 NSCLC and 2.71 µM in the assay on HS 578T breast. In addition, the TGI with SK-OV-3 ovarian came out at 19.6 µM; in the assay on MOLT-4 leukemia, 20.9 µM; in the assay with NCI-H522 lung, 17.4 µM; in the assay with HCT-15 colon it was 13.1 µM; in the assay with HCC-2998 colon, 23.5 µM; with SF-268 CNS, 21.3 µM. Moreover, the TGI in the assay with IGROV1 ovarian stood at 17.3 µM; with NCI-H460 lung, 14.9 µM; in the assay on A549 NSCLC it was 26.2 µM; in the assay on HS 578T breast, 13.5 µM.

Regarding `OCC1SC(n2cnc3cncnc32)C(O)C1O` (stereo not drawn), the GI50 in the assay on SK-OV-3 ovarian, in the assay on MOLT-4 leukemia, with NCI-H522 lung, in the assay on HCT-15 colon, in the assay on HCC-2998 colon and with SF-268 CNS was more than 100 µM throughout. Also, the GI50 with IGROV1 ovarian, in the assay with NCI-H460 lung, with A549 NSCLC and in the assay with HS 578T breast was more than 100 µM throughout. Further, the TGI in the assay on SK-OV-3 ovarian, with MOLT-4 leukemia, with NCI-H522 lung, in the assay with HCT-15 colon, in the assay with HCC-2998 colon and in the assay on SF-268 CNS was more than 100 µM throughout. In addition, the TGI with IGROV1 ovarian, in the assay with NCI-H460 lung, in the assay on A549 NSCLC and in the assay on HS 578T breast was more than 100 µM in each case.

(Values after PubChem BioAssay (NCI).)
